From ChEMBL document CHEMBL1133271, “Synthesis and biological property of carba and 20-deoxo analogues of arenastatin A” (Bioorg Med Chem Lett, 2000)
≈ marks a conversion by molar mass, not a printed value.

Assay: Cytotoxicity of compound was determined against KB cells
Assay type: functional, cell-based
Details: Homo sapiens

In the case of COc1ccc(C[C@H]2NC(=O)/C=C/C[C@@H]([C@H](C)C3OC3c3ccccc3)OC(=O)[C@H](CC(C)C)CC(=O)CCNC2=O)cc1 (some centres undefined), the IC50 was 70 ng/mL (≈ 116 nM).

COc1ccc(C[C@H]2NC(=O)/C=C/C[C@@H]([C@H](C)C3OC3c3ccccc3)OC(=O)[C@H](CC(C)C)OCCNC2=O)cc1 (some centres undefined) showed an IC50 of 40 ng/mL (≈ 69.1 nM).

For COc1ccc(C[C@H]2NC(=O)/C=C/C[C@@H]([C@H](C)C3OC3c3ccccc3)OC(=O)[C@H](CC(C)C)NC(=O)CCNC2=O)cc1 (some centres undefined), the IC50 was 6 ng/mL (≈ 9.91 nM).

Compound COc1ccc(C[C@H]2NC(=O)/C=C/C[C@@H]([C@H](C)[C@H]3O[C@@H]3c3ccccc3)OC(=O)[C@H](CC(C)C)OC(=O)CCNC2=O)cc1 [ARENASTATIN A] has an IC50 of 0.005 ng/mL (≈ 0.00824 nM).
